# From patent US8796247B2, “Indole derivative, and pharmacologically acceptable salt thereof” (Kissei Pharmaceutical Co., Ltd., priority 2011, dated 2014)
# Biological target: T1, rat EP1 receptor (Rattus norvegicus, UniProt P70597)
# T1 construct: expressed in transfected cells; host or cells: COS-1 cells, transient transfection with Lipofectamine 2000
# T1 sequence (P70597 1-405): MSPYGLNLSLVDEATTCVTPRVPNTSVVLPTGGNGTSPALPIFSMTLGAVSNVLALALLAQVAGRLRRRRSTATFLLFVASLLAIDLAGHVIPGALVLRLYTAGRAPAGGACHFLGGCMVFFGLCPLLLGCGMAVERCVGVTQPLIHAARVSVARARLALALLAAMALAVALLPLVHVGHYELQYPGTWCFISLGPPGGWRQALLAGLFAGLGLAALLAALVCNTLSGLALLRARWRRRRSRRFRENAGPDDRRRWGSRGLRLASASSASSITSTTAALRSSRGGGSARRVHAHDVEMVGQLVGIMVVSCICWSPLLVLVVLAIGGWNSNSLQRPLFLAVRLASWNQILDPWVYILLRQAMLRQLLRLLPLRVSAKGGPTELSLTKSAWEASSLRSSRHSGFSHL
# Assay: Test for confirmation of EP1 receptor antagonism: inhibition of prostaglandin E2-induced increase in intracellular calcium concentration in rat EP1 receptor-expressing COS-1 cells
# Format: cell-based
# Details: prostaglandin E2 10 nM, intracellular calcium fluorescence signal
# Procedure: Test for Confirmation of EP1 Receptor Antagonism
# (1) Preparation of Rat EP1 Expression Vector
# Using Rat Kidney BD Marathon-Ready cDNA (Nippon Becton Dickinson Company, Ltd.) as a template, and using a forward primer shown in (SEQ ID NO:1) and a reverse primer shown in (SEQ ID NO:2), a first run of PCR was carried out using KOD-Plus-Ver 2.0 (Toyobo Co., Ltd.). Further, using this amplification product as a template, and using a forward primer shown in (SEQ ID NO:3) and a reverse primer shown in (SEQ ID NO:4), a second run of PCR was carried out in the same manner. The amplification product obtained by the second run of PCR was incorporated into a vector (pcDNA3.1 D/V5-His-TOPO (registered trademark), Invitrogen Japan K. K.). By a conventional method, the vector containing this amplification product was introduced into E. coli (One Shot TOP10 Competent Cells, Invitrogen Corporation) and transformed. This transformed E. coli was cultured in an LB agar medium for one day. After the culture, colonies were selected and cultured in an LB liquid medium containing 50 μg/mL of ampicillin. After the culture, the vector was purified using a QIAprep Spin Miniprep Kit (Qiagen K. K.). The base sequence of the insertion site of this vector (SEQ ID NO:5) was compared with the rat EP1 base sequence (Ptger1) registered as Accession No. NM_013100 in a publicly-known database (NCBI), and as a result, the base sequences completely matched except for a single base. Further, the amino acid sequence translated by the base sequence completely matched the amino acid sequence of the rat EP1 receptor registered as an NCBI Accession No. NP_037232. Therefore, it was confirmed that the cloned gene sequence was a base sequence of the rat EP1 receptor and the obtained amino acid sequence was that of the rat EP1 receptor. The pcDNA3.1 D/V5-His-TOPO (registered trademark) into which the nucleic acid shown in (SEQ ID NO:5) had been inserted was taken as a rat EP1-expressing vector.
# (2) Preparation of Rat EP1 Receptor-Expressing Cells
# COS-1 cells (Dainippon Sumitomo Pharma Co., Ltd.) were cultured until they reached confluence in an incubator at 37° C. under a 5% CO2 gas condition, using a D-MEM liquid medium (high glucose and L-glutamine contained, Invitrogen Corporation) to which a penicillin-streptomycin solution (Invitrogen Corporation, final concentration: 100 U/mL as benzylpenicillin; 100 μg/mL as streptomycin) as an antibiotic, MEM nonessential amino acids (Invitrogen Corporation, final concentration: 0.1 mM), and fetal calf serum (Sanko Junyaku Co., Ltd., final concentration: 10%) were added.
# (2-2) COS-1 Cell Subculture
# The cells that had reached confluence were stripped with 0.05% trypsin/0.53 mM EDTA•4Na (Invitrogen Japan K. K.) and resuspended in the liquid medium. The resuspended cells were diluted and cultured in the liquid medium at a spread ratio from 1:4 to 1:8.
# (2-3) Preparation of Cells for Introduction of Rat EP1-Expressing Vector
# The cells that had reached confluence were stripped with 0.05% trypsin/0.53 mM EDTA•4Na, and resuspended in a D-MEM liquid medium (high glucose and L-glutamine contained, Invitrogen Corporation) to which MEM nonessential amino acids (final concentration: 0.1 mM) and fetal calf serum (final concentration: 10%) were added. In each well of a Poly D-lysine-coated 96-well microplate (BD BioCoat (registered trademark), Nippon Becton Dickinson Company, Ltd.), this resuspended cell suspension culture was prepared to be 5×10^4 cells/well in 100 μL of the liquid medium, and 100 μL of the cell suspension was dispensed and seeded in each well. After seeding, the cells were cultured in an incubator at 37° C. under a 5% CO2 gas condition. Once the cells for introduction of a rat EP1-expressing vector were adhered (about 2 hours after seeding), introduction of the rat EP1-expressing vector was carried out in the following order.
# (2-4) Introduction of Rat EP1-Expressing Vector […]
row,IC50,Structure (SMILES)
1,81 nM,"CCS(=O)(=O)NC(=O)c1cccc(Cn2c(-c3ccccc3)cc3cc(OC)ccc32)n1 [Example 1-12, N-(ethanesulfonyl)-6-(5-methoxy-2-phenylindol-1-ylmethyl)pyridine-2-carboxamide]"
2,63 nM,"COc1ccc2c(c1)cc(-c1ccccc1)n2Cc1cccc(C(=O)NS(=O)(=O)C2CC2)n1 [Example 4-14, N-(cyclopropanesulfonyl)-6-(5-methoxy-2-phenylindol-1-ylmethyl)pyridine-2-carboxamide]"
3,23 nM,"CCC(C)c1cc2cc(OC)ccc2n1Cc1cccc(-c2nnn[nH]2)n1 (stereo not shown) [Example 5-1, 2-(butan-2-yl)-5-methoxy-1-[6-(1H-1,2,3,4-tetrazol-5-yl)pyridin-2-ylmethyl]-1H-indole]"
4,47 nM,"CCS(=O)(=O)NC(=O)c1cccc(Cn2c(-c3cc(F)ccc3F)cc3cc(OC)ccc32)n1 [Example 4-5, 6-[2-(2,5-difluorophenyl)-5-methoxyindol-1-ylmethyl]-N-(ethanesulfonyl)pyridine-2-carboxamide]"
5,35 nM,"COc1cc2cc(-c3ccoc3)n(Cc3cccc(-c4nnn[nH]4)n3)c2cc1Cl [Example 5-4, 6-chloro-2-(furan-3-yl)-5-methoxy-1-[6-(1H-1,2,3,4-tetrazol-5-yl)pyridin-2-ylmethyl]-1H-indole]"
6,46 nM,"CCC(C)c1cc2cc(OC)ccc2n1Cc1cccc(C(=O)NS(=O)(=O)CC)n1 (stereo not shown) [Example 4-10, 6-[2-(butan-2-yl)-5-methoxyindol-1-ylmethyl]-N-(ethanesulfonyl)pyridine-2-carboxamide]"
7,67 nM,"COc1cc2cc(-c3ccccc3)n(Cc3cccc(-c4nnn[nH]4)n3)c2cc1Cl [Example 2-3, 6-chloro-5-methoxy-2-phenyl-1-[6-(1H-1,2,3,4-tetrazol-5-yl)pyridin-2-ylmethyl]-1H-indole]"
8,37 nM,"COc1ccc2c(c1)cc(-c1ccccc1)n2Cc1cccc(C(=O)NS(=O)(=O)C(C)C)n1 [Example 4-13, 6-(5-methoxy-2-phenylindol-1-ylmethyl)-N-(propane-2-sulfonyl)pyridine-2-carboxamide]"
9,59 nM,"CCCS(=O)(=O)NC(=O)c1cccc(Cn2c(-c3ccccc3)cc3cc(OC)c(F)cc32)n1 [Example 4-22, 6-(6-fluoro-5-methoxy-2-phenylindol-1-ylmethyl)-N-(propane-1-sulfonyl)pyridine-2-carboxamide]"
10,42 nM,"COc1ccc2c(c1)cc(-c1ccccc1)n2Cc1ccc(-c2nnn[nH]2)o1 [Example 2-2, 5-methoxy-2-phenyl-1-[5-(1H-1,2,3,4-tetrazol-5-yl)furan-2-ylmethyl]-1H-indole]"
11,33 nM,"COc1cc2cc(C3(C)CC3)n(Cc3cccc(-c4nnn[nH]4)n3)c2cc1Cl [Example 5-6, 6-chloro-5-methoxy-2-(1-methylcyclopropyl)-1-[6-(1H-1,2,3,4-tetrazol-5-yl)pyridin-2-ylmethyl]-1H-indole]"
12,43 nM,"CCCS(=O)(=O)NC(=O)c1cccc(Cn2c(C(C)CC)cc3cc(OC)ccc32)n1 (stereo not shown) [Example 4-16, 6-[2-(butan-2-yl)-5-methoxyindol-1-ylmethyl]-N-(propane-1-sulfonyl)pyridine-2-carboxamide]"
13,49 nM,"COc1cc2cc(-c3ccsc3)n(Cc3cccc(C(=O)NS(C)(=O)=O)n3)c2cc1F [Example 1-5, 6-[6-fluoro-5-methoxy-2-(thiophen-3-yl)indol-1-ylmethyl]-N-(methanesulfonyl)pyridine-2-carboxamide]"
14,31 nM,"CCC(C)c1cc2cc(OC)c(Cl)cc2n1Cc1cccc(C(=O)NS(=O)(=O)CC)n1 (stereo not shown) [Example 4-2, 6-[2-(butan-2-yl)-6-chloro-5-methoxyindol-1-ylmethyl]-N-(ethanesulfonyl)pyridine-2-carboxamide]"
15,32 nM,"COc1cc2cc(-c3ccsc3)n(Cc3cccc(-c4nnn[nH]4)n3)c2cc1F [Example 2-4, 6-fluoro-5-methoxy-1-[6-(1H-1,2,3,4-tetrazol-5-yl)pyridin-2-ylmethyl]-2-(thiophen-3-yl)-1H-indole]"
16,97 nM,"COc1cc2cc(-c3ccccc3)n(Cc3cccc(C(=O)NC#N)n3)c2cc1F [Example 8-7, N-cyano-6-(6-fluoro-5-methoxy-2-phenylindol-1-ylmethyl)pyridine-2-carboxamide]"
17,40 nM,"CCS(=O)(=O)NC(=O)c1cccc(Cn2c(-c3ccccc3)cc3cc(OC)c(F)cc32)n1 [Example 4-20, N-(ethanesulfonyl)-6-(6-fluoro-5-methoxy-2-phenylindol-1-ylmethyl)pyridine-2-carboxamide]"
18,31 nM,"COc1cc2cc(-c3ccccc3)n(Cc3cccc(-c4nnn[nH]4)n3)c2cc1F [Example 5-3, 6-fluoro-5-methoxy-2-phenyl-1-[6-(1H-1,2,3,4-tetrazol-5-yl)pyridin-2-ylmethyl]-1H-indole]"
19,64 nM,"COc1ccc2c(c1)cc(C1(C)CC1)n2Cc1ccc(-c2nnn[nH]2)o1 [Example 5-7, 5-methoxy-2-(1-methylcyclopropyl)-1-[5-(1H-1,2,3,4-tetrazol-5-yl)furan-2-ylmethyl]-1H-indole]"
20,31 nM,"CCC(C)c1cc2cc(OC)ccc2n1Cc1cccc(C(=O)NS(=O)(=O)C2CC2)n1 (stereo not shown) [Example 4-18, 6-[2-(butan-2-yl)-5-methoxyindol-1-ylmethyl]-N-(cyclopropanesulfonyl)pyridine-2-carboxamide]"
21,28 nM,"COc1cc2cc(-c3ccccc3)n(Cc3cccc(C(=O)NS(=O)(=O)C4CC4)n3)c2cc1F [Example 4-23, N-(cyclopropanesulfonyl)-6-(6-fluoro-5-methoxy-2-phenylindol-1-ylmethyl)pyridine-2-carboxamide]"
22,22 nM,"COc1cc2cc(-c3ccccc3)n(Cc3cccc(-c4noc(=O)[nH]4)n3)c2cc1F [Example 6-6, 3-[6-(6-fluoro-5-methoxy-2-phenylindol-1-ylmethyl)pyridin-2-yl]-4,5-dihydro-1,2,4-oxadiazol-5-one]"
23,60 nM,"COc1cc2cc(-c3ccccc3)n(Cc3cccc(C(=O)NS(C)(=O)=O)n3)c2cc1F [Example 4-19, 6-(6-fluoro-5-methoxy-2-phenylindol-1-ylmethyl)-N-(methanesulfonyl)pyridine-2-carboxamide]"
24,49 nM,"CCC(C)c1cc2cc(OC)ccc2n1Cc1cccc(C(=O)NS(=O)(=O)C(C)C)n1 (stereo not shown) [Example 4-17, 6-[2-(butan-2-yl)-5-methoxyindol-1-ylmethyl]-N-(propane-2-sulfonyl)pyridine-2-carboxamide]"
25,30 nM,"CCCS(=O)(=O)NC(=O)c1cccc(Cn2c(-c3ccccc3)cc3cc(OC)ccc32)n1 [Example 4-12, 6-(5-methoxy-2-phenylindol-1-ylmethyl)-N-(propane-1-sulfonyl)pyridine-2-carboxamide]"
